Data from article PMC7473988 (Journal of Experimental Pharmacology, 2020).
“And” between values parts separate entries of the source, which are not always exact repeats. Equal entries are not always repeated. Structures can show the parent of a compound that is named as a salt.

Key:
SERT [1] = target: T1, SERT (Homo sapiens, UniProt P31645); details: cited from earlier work
neuronal receptors = details: binding affinity study; cited from earlier work
[2] = test system: 5-HT in rat and mouse PFC; details: cited from earlier work
[3] = target: adrenergic alpha1B (ADRα1B) receptor (Homo sapiens, UniProt P35368); experiment: Cerep Bioprint radioligand binding assay: ADRα1B; details: read-out: percent inhibition of the binding of a radiolabeled ligand
5-HT1D = 5-HT1D (Rattus norvegicus, UniProt P28565)
5-HT2B [4] = target: T2, 5-HT2B (Homo sapiens, UniProt P41595); experiment: Cerep Bioprint radioligand binding assay: 5-HT2B
T2 sequence (P41595 whole entry): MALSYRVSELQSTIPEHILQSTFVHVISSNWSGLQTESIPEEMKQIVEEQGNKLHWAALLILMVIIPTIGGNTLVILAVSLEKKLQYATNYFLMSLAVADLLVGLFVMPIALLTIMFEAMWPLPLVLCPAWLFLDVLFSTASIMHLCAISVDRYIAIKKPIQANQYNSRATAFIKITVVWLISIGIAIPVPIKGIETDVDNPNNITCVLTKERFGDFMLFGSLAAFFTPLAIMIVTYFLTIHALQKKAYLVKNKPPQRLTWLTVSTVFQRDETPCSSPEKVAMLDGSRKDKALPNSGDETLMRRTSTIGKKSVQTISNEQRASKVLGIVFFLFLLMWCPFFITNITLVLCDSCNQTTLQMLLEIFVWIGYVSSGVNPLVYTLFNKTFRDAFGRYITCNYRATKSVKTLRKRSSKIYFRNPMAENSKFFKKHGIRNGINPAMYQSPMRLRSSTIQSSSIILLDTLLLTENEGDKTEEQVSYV

GABA transporter (GAT) = experiment: Cerep Bioprint radioligand binding assay: GAT; details: viloxazine 10 µM
ADRβ2 = ADRβ2 (Homo sapiens, UniProt P07550); experiment: cell-based
NET [5] = target: NET (Homo sapiens, UniProt P23975); experiment: Cerep Bioprint radioligand binding assay: NET; details: read-out: percent inhibition of the binding of a radiolabeled ligand
[6] = target: muscarinic cholinergic receptor M2 (Homo sapiens, UniProt P08172); experiment: Cerep Bioprint radioligand binding assay: M2; details: read-out: percent inhibition of the binding of a radiolabeled ligand
ADRα1A = ADRα1A (Homo sapiens, UniProt P35348)
5-HT2C [7] = target: T3, 5-HT2C (Homo sapiens, UniProt P28335); experiment: cell-based; details: CHO, read-out: Emax, agonistic activity towards 5-HT2C
T3 sequence (P28335 33-458): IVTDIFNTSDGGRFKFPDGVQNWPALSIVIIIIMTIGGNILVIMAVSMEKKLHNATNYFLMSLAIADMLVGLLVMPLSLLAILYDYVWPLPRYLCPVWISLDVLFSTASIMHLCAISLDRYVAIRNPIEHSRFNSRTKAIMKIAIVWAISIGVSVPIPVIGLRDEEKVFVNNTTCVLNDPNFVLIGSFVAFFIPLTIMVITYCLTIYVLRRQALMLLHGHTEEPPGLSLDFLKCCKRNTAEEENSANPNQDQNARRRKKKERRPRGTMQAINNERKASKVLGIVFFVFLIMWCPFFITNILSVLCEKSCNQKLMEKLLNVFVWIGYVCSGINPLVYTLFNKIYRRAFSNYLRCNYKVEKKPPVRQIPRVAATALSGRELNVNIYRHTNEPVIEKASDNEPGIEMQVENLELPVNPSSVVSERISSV

5-HT6 = 5-HT6 (Homo sapiens, UniProt P50406)
5-HT7 [8] = target: T4, 5-HT7 (Homo sapiens, UniProt P34969); details: concentrations up to 100 µM
5-HT7 [9] = target: T4, 5-HT7; experiment: cell-based; details: read-out: antagonistic activity at 5-HT7, inhibition
[10] = target: muscarinic cholinergic receptor M4 (Homo sapiens, UniProt P08173); experiment: Cerep Bioprint radioligand binding assay: M4; details: read-out: percent inhibition of the binding of a radiolabeled ligand
ADRα2C = ADRα2C (Homo sapiens, UniProt P18825)
dopaminergic receptor D1 = dopaminergic receptor D1 (Homo sapiens, UniProt P21728)
His receptor H2 = His receptor H2 (Homo sapiens, UniProt P25021); experiment: Cerep Bioprint radioligand binding assay: H2; details: read-out: percent inhibition of the binding of a radiolabeled ligand
[11] = target: cholinergic muscarinic receptor M3 (Homo sapiens, UniProt P20309)
Chain of cholinergic muscarinic receptor M3 (P20309 whole entry): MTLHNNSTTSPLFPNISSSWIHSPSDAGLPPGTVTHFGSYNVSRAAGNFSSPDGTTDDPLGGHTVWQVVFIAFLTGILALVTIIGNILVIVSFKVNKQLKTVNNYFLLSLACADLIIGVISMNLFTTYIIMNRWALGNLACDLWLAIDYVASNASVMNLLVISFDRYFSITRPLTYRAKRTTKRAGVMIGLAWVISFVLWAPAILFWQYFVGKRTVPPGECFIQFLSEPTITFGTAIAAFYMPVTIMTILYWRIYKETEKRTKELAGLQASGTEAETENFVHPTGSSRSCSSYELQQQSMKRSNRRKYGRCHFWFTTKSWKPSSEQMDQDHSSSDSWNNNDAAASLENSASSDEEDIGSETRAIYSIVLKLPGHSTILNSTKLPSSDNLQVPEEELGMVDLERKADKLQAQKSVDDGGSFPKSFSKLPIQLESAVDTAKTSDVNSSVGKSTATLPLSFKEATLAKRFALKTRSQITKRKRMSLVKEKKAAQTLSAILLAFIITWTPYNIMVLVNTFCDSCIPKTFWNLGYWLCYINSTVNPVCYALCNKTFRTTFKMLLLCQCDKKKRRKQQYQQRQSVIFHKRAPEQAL

[12] = target: muscarinic cholinergic receptor M1 (Homo sapiens, UniProt P11229); experiment: Cerep Bioprint radioligand binding assay: M1; details: read-out: percent inhibition of the binding of a radiolabeled ligand
5-HT7 [13] = target: T4, 5-HT7; experiment: Cerep Bioprint radioligand binding assay: 5-HT7; details: read-out: percent inhibition of the binding of a radiolabeled ligand
5-HT2B [14] = details: at all concentrations, clinical doses of 100, 200, 400, and 600 mg/day
ADRα1B = ADRα1B (Homo sapiens, UniProt P35368); experiment: cell-based
SERT [15] = target: T1, SERT; experiment: Cerep Bioprint radioligand binding assay: SERT; details: viloxazine 10 µM
His receptor H1 = His receptor H1 (Homo sapiens, UniProt P35367); experiment: Cerep Bioprint radioligand binding assay: H1; details: read-out: percent inhibition of the binding of a radiolabeled ligand
Chain of His receptor H1 (P35367 whole entry): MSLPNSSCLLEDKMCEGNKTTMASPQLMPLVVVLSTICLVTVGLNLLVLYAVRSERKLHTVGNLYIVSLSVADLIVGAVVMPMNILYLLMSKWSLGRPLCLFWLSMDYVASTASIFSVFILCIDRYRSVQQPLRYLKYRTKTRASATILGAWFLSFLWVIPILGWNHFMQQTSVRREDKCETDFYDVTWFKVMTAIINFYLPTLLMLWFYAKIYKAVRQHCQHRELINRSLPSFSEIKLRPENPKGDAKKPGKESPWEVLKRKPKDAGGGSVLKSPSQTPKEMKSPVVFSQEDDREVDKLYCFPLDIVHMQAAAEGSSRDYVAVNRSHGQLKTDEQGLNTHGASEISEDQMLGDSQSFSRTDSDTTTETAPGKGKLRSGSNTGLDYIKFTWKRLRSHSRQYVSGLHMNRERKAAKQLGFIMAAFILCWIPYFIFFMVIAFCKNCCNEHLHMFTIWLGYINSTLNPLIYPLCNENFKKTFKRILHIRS

5-HT2C [16] = details: at all concentrations except at 100 mg/day dose
dopaminergic receptor D3 = dopaminergic receptor D3 (Homo sapiens, UniProt P35462)
Chain of dopaminergic receptor D3 (P35462 whole entry): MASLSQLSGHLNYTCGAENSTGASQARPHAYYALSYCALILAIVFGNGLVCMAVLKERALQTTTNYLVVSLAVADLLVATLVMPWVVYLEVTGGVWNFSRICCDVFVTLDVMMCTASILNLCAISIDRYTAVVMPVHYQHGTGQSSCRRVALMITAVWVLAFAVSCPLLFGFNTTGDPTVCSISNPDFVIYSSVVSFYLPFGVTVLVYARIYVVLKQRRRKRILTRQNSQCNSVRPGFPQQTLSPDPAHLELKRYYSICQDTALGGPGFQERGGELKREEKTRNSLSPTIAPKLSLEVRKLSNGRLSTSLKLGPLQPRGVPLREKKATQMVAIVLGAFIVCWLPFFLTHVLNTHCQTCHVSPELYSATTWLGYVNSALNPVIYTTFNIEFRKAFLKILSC

DAT = DAT (Homo sapiens, UniProt Q01959); experiment: Cerep Bioprint radioligand binding assay: DAT; details: read-out: percent inhibition (activity towards DAT)
5-HT2B [17] = target: T2, 5-HT2B; experiment: cell-based
DA receptor D3 = DA receptor D3 (Homo sapiens, UniProt P35462); experiment: Cerep Bioprint radioligand binding assay: D3; details: read-out: percent inhibition of the binding of a radiolabeled ligand
Chain of DA receptor D3 (P35462 whole entry): as above

ADRβ1 = ADRβ1 (Homo sapiens, UniProt P08588)
[18] = target: muscarinic cholinergic receptor M3 (Homo sapiens, UniProt P20309); experiment: Cerep Bioprint radioligand binding assay: M3; details: read-out: percent inhibition of the binding of a radiolabeled ligand
Chain of muscarinic cholinergic receptor M3 (P20309 whole entry): as the sequence (P20309 whole entry) above

ADRα2A = ADRα2A (Homo sapiens, UniProt P08913)
5-HT2A [19] = target: T5, 5-HT2A (Homo sapiens, UniProt P28223); experiment: cell-based
T5 sequence (P28223 whole entry, species assumed): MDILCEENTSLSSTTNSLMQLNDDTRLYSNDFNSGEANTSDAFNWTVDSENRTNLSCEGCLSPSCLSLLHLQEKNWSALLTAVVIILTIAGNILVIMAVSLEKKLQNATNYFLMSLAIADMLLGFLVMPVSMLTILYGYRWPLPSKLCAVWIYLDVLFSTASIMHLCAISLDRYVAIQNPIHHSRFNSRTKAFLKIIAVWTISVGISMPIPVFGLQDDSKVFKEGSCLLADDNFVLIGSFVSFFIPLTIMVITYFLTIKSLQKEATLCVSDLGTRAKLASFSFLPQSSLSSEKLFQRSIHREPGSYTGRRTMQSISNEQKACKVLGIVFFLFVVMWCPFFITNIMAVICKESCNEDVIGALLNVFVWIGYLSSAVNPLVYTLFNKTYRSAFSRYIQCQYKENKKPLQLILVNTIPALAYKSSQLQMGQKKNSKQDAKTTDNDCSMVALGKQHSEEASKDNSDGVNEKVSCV

histaminic receptor H1 = histaminic receptor H1 (Homo sapiens, UniProt P35367)
Chain of histaminic receptor H1 (P35367 whole entry): as the sequence (P35367 whole entry) above

NET [20] = target: NET (Rattus norvegicus, UniProt Q63380); experiment: biochemical; details: IC50, inhibition of [3H]-NE uptake (NET), rat hypothalamic synaptosomes
DA receptor D1 = DA receptor D1 (Homo sapiens, UniProt P21728); experiment: Cerep Bioprint radioligand binding assay: D1; details: read-out: percent inhibition of the binding of a radiolabeled ligand
5-HT1B [21] = details: viloxazine 10 µM
[22] = target: cholinergic muscarinic receptor M4 (Homo sapiens, UniProt P08173)
Chain of cholinergic muscarinic receptor M4 (P08173 whole entry): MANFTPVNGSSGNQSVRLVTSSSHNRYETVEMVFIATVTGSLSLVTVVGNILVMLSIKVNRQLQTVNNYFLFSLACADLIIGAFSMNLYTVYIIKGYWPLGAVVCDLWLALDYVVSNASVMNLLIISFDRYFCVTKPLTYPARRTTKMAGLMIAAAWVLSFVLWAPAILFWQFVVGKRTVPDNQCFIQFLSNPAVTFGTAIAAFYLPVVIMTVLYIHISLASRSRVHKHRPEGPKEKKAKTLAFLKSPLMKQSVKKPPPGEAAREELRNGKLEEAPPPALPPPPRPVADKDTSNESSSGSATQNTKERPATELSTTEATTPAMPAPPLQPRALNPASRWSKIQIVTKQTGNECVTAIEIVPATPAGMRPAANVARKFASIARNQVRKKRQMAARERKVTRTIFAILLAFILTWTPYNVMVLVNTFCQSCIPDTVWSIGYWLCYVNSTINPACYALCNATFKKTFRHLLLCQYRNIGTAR

DA receptor D2S = DA receptor D2S (Homo sapiens, UniProt P14416); experiment: Cerep Bioprint radioligand binding assay: D2S; details: read-out: percent inhibition of the binding of a radiolabeled ligand
ADRα2B = ADRα2B (Homo sapiens, UniProt P18089)
5-HT1A = 5-HT1A (Homo sapiens, UniProt P08908)
5-HT2A [23] = target: T5, 5-HT2A; details: concentrations up to 300 µM
5-HT1B [24] = target: 5-HT1B (Homo sapiens, UniProt P28222)
[25] = test system: extracellular neurotransmitter levels in the PFC, Acb, and Amg; details: viloxazine 50 mg/kg IP, compared to baseline or vehicle
[26] = target: dopaminergic receptor D2S (Homo sapiens, UniProt P14416)
Chain of dopaminergic receptor D2S (P14416 1-414 isoform P14416-2): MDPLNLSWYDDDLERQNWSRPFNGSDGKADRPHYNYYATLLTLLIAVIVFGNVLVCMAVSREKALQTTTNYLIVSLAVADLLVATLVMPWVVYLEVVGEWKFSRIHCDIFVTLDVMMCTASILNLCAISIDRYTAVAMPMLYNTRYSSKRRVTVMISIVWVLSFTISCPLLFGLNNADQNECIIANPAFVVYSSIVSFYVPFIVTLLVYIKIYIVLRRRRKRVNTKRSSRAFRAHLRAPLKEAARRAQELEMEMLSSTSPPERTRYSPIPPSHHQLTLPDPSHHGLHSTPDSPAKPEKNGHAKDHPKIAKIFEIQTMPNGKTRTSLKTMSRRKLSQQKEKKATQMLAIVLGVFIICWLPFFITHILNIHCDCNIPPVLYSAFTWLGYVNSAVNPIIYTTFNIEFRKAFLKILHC

[27] = target: adrenergic alpha1A (ADRα1A) receptor (Homo sapiens, UniProt P35348); experiment: Cerep Bioprint radioligand binding assay: ADRα1A; details: read-out: percent inhibition of the binding of a radiolabeled ligand
[28] = target: monoamine oxidase A (MAO-A) (Rattus norvegicus, UniProt P21396); experiment: Cerep Bioprint panel assay: MAO-A; details: read-out: percent inhibition (activity towards MAO-A)
[29] = target: cholinergic muscarinic receptor M1 (Homo sapiens, UniProt P11229)
Chain of cholinergic muscarinic receptor M1 (P11229 whole entry): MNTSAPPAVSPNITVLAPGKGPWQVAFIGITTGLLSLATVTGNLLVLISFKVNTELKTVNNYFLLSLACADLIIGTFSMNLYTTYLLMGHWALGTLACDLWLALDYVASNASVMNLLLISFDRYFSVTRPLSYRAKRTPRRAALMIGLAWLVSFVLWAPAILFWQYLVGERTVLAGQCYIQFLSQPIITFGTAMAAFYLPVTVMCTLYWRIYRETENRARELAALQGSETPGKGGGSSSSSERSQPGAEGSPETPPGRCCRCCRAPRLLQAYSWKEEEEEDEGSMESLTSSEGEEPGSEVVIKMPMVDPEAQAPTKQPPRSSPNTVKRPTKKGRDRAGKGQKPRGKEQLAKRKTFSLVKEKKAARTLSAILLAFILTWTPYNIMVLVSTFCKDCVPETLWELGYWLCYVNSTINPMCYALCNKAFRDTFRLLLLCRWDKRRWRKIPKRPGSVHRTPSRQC

[30] = target: choline transporter (CHT-1) (Homo sapiens, UniProt Q9GZV3); experiment: Cerep Bioprint radioligand binding assay: CHT-1; details: viloxazine 10 µM
5-HT2C [31] = target: T3, 5-HT2C; experiment: biochemical; details: read-out: percent inhibition of the binding of a radiolabeled ligand
DA in the striatum = details: freely moving spontaneously hypertensive rats; cited from earlier work

T1 sequence (P31645 whole entry, species assumed): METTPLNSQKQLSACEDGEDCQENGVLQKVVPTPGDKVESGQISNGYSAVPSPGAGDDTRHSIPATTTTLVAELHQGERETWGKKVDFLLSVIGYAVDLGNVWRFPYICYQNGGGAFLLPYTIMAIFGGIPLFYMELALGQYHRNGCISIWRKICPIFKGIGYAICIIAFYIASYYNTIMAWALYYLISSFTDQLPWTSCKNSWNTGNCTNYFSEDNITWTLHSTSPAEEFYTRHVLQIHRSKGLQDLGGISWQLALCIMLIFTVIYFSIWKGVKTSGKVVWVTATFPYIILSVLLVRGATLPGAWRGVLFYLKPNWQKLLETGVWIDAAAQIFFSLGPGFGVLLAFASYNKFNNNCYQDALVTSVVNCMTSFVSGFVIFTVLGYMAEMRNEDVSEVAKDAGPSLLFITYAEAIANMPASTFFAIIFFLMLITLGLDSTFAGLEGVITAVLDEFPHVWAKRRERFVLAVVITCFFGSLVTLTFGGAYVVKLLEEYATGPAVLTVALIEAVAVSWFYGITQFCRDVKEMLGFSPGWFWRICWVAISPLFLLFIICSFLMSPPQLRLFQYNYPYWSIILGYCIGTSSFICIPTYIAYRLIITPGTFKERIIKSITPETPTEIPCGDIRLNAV

CNCC[C@@H](Oc1ccccc1C)c1ccccc1 [Atomoxetine, atomoxetine]
SERT occupancy (SERT [1]): > 85% | affinity for neuronal receptors (neuronal receptors): does not possess appreciable affinity | effect on 5-HT in rat and mouse PFC by microdialysis [2]: not found to functionally increase 5-HT

CCOc1ccccc1OCC1CNCCO1 (centres unmarked) [Viloxazine, Viloxazine hydrochloride]
inhibition at 10 µM [3]: > 50% | agonistic or antagonistic activity towards 5-HT1D (5-HT1D): did not show any significant agonistic or antagonistic activity | Ki (5-HT2B [4]; Ki for 5-HT2B, constant of binding used for receptor occupancy): 6.4 µM | inhibition at 10 µM (5-HT2B [4]; read-out: percent inhibition of the binding of a radiolabeled ligand): > 50% | binding to the GABA transporter (GAT) (GABA transporter (GAT)): negligible binding | IC50 (ADRβ2): 68 µM | inhibition at 10 µM (NET [5]): > 50% | inhibition at 10 µM [6]: < 25% | agonistic or antagonistic activity towards ADRα1A (ADRα1A): either very weak (IC50 > 150 µM) or no significant agonistic or antagonistic activity | Emax (5-HT2C [7]): 78.6% | agonistic or antagonistic activity towards 5-HT6 (5-HT6): did not show any significant agonistic or antagonistic activity | agonistic activity at 5-HT7 (5-HT7 [8]): no agonistic activity | inhibition at 100 µM (5-HT7 [9]): 52% | inhibition at 10 µM [10]: < 25% | agonistic or antagonistic activity towards ADRα2C (ADRα2C): either very weak (IC50 > 150 µM) or no significant agonistic or antagonistic activity | antagonistic activity towards D1 (dopaminergic receptor D1): either very weak (IC50 > 150 µM) or no antagonistic activity | agonistic activity towards D1 (dopaminergic receptor D1; concentrations up to 300 µM): no significant agonistic activity | inhibition at 10 µM (His receptor H2): < 25% | antagonistic activity towards M3 [11]: either very weak (IC50 > 150 µM) or no antagonistic activity | agonistic activity towards M3 ([11]; concentrations up to 300 µM): no significant agonistic activity | inhibition at 10 µM [12]: < 25% | inhibition at 10 µM (5-HT7 [13]): > 50% | calculated 5-HT2B occupancy at clinical doses (5-HT2B [14]): higher than 80% | IC50 (ADRα1B): 93 µM | binding to SERT (SERT [15]): negligible binding | inhibition at 10 µM (His receptor H1): < 25% | calculated 5-HT2C occupancy at clinical doses (5-HT2C [16]): higher than 80% | antagonistic activity towards D3 (dopaminergic receptor D3): either very weak (IC50 > 150 µM) or no antagonistic activity | agonistic activity towards D3 (dopaminergic receptor D3; concentrations up to 300 µM): no significant agonistic activity | inhibition at 10 µM (DAT): ~10% | IC50 (5-HT2B [17]): 27 µM | inhibition at 10 µM (DA receptor D3): < 25% | agonistic or antagonistic activity towards ADRβ1 (ADRβ1): either very weak (IC50 > 150 µM) or no significant agonistic or antagonistic activity | inhibition at 10 µM [18]: < 25% | agonistic or antagonistic activity towards ADRα2A (ADRα2A): either very weak (IC50 > 150 µM) or no significant agonistic or antagonistic activity | IC50 (5-HT2A [19]): > 300 µM | antagonistic activity towards H1 (histaminic receptor H1): either very weak (IC50 > 150 µM) or no antagonistic activity | agonistic activity towards H1 (histaminic receptor H1; concentrations up to 300 µM): no significant agonistic activity | IC50 (NET [20]): 0.26 µM and ~0.3 µM | inhibition at 10 µM (DA receptor D1): < 25% | percent inhibition of the binding of a radiolabeled ligand (5-HT1B [21]): > 50% | antagonistic activity towards M4 [22]: either very weak (IC50 > 150 µM) or no antagonistic activity | agonistic activity towards M4 ([22]; concentrations up to 300 µM): no significant agonistic activity | inhibition at 10 µM (DA receptor D2S): < 25% | agonistic or antagonistic activity towards ADRα2B (ADRα2B): either very weak (IC50 > 150 µM) or no significant agonistic or antagonistic activity | agonistic or antagonistic activity towards 5-HT1A (5-HT1A): did not show any significant agonistic or antagonistic activity | agonistic effect at 5-HT2A (5-HT2A [23]): no agonistic effect | agonistic or antagonistic activity towards 5-HT1B (5-HT1B [24]): did not show any significant agonistic or antagonistic activity | change in extracellular level of ACh [25]: No significant changes | change in extracellular level of GABA [25]: No significant changes | change in extracellular level of Glu [25]: No significant changes | change in extracellular level of His [25]: No significant changes | antagonistic activity towards D2S [26]: either very weak (IC50 > 150 µM) or no antagonistic activity | agonistic activity towards D2S ([26]; concentrations up to 300 µM): no significant agonistic activity | inhibition at 10 µM [27]: > 50% | inhibition at 10 µM [28]: ~10% | antagonistic activity towards M1 [29]: either very weak (IC50 > 150 µM) or no antagonistic activity | agonistic activity towards M1 ([29]; concentrations up to 300 µM): no significant agonistic activity | binding to the choline transporter (CHT-1) [30]: negligible binding | inhibition at 10 µM (5-HT2C [31]): > 50%

C[C@H](N)Cc1ccccc1 [d-amphetamine]
increase of DA from the baseline level in the striatum (DA in the striatum): 700%

C[C@@H](N)Cc1ccccc1 [l-amphetamine]
increase of DA from the baseline level in the striatum (DA in the striatum): 1,200%
